Test results reported in US6281214A, “Biphenyl derivatives” (Eisai Co., Ltd, priority 1994, dated 2001).

Columns and labels:
serotonin S2 receptor = molecular target: T1, serotonin S2 receptor (Rattus norvegicus, UniProt P14842); test: serotonin S2 receptor binding test ([3H] Ketanserin Binding Test); set-up: species or system SD rats; conditions: 1 nM [3H] Ketanserin, rat cortex, 37° C., 15 minutes
T1 construct: The receptor fraction prepared from the cortex was molten and suspended; from tissue; host or cells: cerebral cortex of SD rats (membrane fraction)
T1 sequence (P14842 whole entry): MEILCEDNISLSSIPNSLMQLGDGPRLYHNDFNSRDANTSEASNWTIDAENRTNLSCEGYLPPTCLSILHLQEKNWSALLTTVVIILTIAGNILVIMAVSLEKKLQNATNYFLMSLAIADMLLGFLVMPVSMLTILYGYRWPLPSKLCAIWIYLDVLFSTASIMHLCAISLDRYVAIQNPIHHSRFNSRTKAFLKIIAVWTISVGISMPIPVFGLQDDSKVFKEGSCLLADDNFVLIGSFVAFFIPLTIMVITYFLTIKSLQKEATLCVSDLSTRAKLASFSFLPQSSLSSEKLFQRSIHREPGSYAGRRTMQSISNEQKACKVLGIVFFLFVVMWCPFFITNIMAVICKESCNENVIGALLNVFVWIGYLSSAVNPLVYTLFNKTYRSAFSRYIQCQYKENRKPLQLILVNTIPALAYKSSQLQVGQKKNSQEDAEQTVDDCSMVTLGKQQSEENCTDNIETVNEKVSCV
How it was run: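 Rat (SD, 6–8 weeks) cortical membranes in 50 mM Tris-HCl pH 7.4 were incubated with 1 nM [3H]ketanserin for 15 min at 37 °C, then filtered and counted. Nonspecific binding was defined with methysergide. IC50 was obtained by probit analysis and converted to Ki using the Scatchard-derived Kd.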

dopamine D2 receptor = molecular target: T2, dopamine D2 receptor (Rattus norvegicus, UniProt P61169); test: dopamine D2 receptor binding test ([3H] Spiperone Binding Test); set-up: species or system SD rats; conditions: 1 nM [3H] Spiperone, rat corpus striatum, room temperature, 60 minutes; read-out: Ki value, dopamine D2 receptor
T2 construct: the receptor fraction prepared from the corpus striatum was molten and suspended; from tissue; host or cells: corpus striatum of SD rats (membrane fraction)
T2 sequence (P61169 whole entry): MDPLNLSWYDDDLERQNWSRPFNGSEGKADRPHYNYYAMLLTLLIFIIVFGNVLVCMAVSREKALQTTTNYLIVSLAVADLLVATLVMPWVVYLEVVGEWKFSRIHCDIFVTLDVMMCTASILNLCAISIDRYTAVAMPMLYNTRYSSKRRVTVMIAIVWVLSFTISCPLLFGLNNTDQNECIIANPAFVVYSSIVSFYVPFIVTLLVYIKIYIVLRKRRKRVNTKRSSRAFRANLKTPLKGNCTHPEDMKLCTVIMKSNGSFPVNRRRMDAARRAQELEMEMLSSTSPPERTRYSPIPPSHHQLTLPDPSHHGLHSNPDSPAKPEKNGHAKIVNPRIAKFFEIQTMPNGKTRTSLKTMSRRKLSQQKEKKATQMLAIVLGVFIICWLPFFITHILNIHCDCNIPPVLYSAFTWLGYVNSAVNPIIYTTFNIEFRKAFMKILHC
How it was run: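 Rat (SD, 6–8 weeks) corpus striatum membranes in 50 mM Krebs-Tris pH 7.4 were incubated with 1 nM [3H]spiperone at room temperature for 60 minutes, with nonspecific binding defined by excess spiperone. IC50 came from probit analysis; Ki was derived using radioligand concentration and Scatchard Kd.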

adrenergic α1 receptor = adrenergic α1 receptor binding test ([3H] Prazosin Binding Test); set-up: species or system SD rats; conditions: 1 nM [3H] Prazosin, rat cortex, room temperature, 60 minutes
How it was run: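 Rat (SD, 6-8 weeks) cerebral cortex membranes in 50 mM Tris-HCl pH 7.4 incubated with 1 nM [3H]prazosin for 60 min at room temperature; nonspecific binding defined with phentolamine. IC50 by probit method, converted to Ki using radioligand concentration and Scatchard-derived Kd.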

[1] = background, cited from earlier work; for extrapyramidal syndrome as adverse reaction: D2 receptor antagonists

Structure (SMILES): CC[C@H](F)c1cc(N2CCN(CC)CC2)cc(-c2ccc(F)cc2C)c1Cl [Example 211, 1-Ethyl-4-{3-[2-(4-fluorotolyl)]-4-chloro-5-[1-(S)-fluoropropnyl]}phenylpiperazine]
- Ki (serotonin S2 receptor): 0.00881 µM
- Ki (dopamine D2 receptor): 0.00414 µM
- Ki (adrenergic α1 receptor): 1.02 µM

Structure (SMILES): CCC(F)c1cc(N2CCN(CCc3ccccn3)CC2)cc(-c2ccccc2C)c1Cl (stereo not shown) [Example 213, 1-[2-(2-Pyridyl)ethyl]-4-[3-(2-tolyl)-4-chloro-5-(1-fluoropropyl)]phenylpiperazine]
- Ki (serotonin S2 receptor): 0.0103 µM
- Ki (dopamine D2 receptor): 0.0143 µM
- Ki (adrenergic α1 receptor): 0.236 µM

Structure (SMILES): CCC(F)c1cc(N2CCN(CCc3ccccn3)CC2)cc(-c2ccccc2C#N)c1Cl (stereo not shown) [Example 214, 1-[2-(2-Pyridyl)ethyl]-4-[3-(2-cyanophenyl)-4-chloro-5-(1-fluoropropyl)]phenylpiperazine]
- Ki (serotonin S2 receptor): 0.00378 µM
- Ki (dopamine D2 receptor): 0.00515 µM
- Ki (adrenergic α1 receptor): 0.0517 µM

Structure (SMILES): CC[C@@H](F)c1cc(N2CCN(C)CC2)cc(-c2ccccc2C)c1Cl [Example 220, 1-Methyl-4-{3-(2-tolyl)-4-chloro-5-[1-(R)-fluoropropyl]}phenylpiperazine]
- Ki (serotonin S2 receptor): 0.0379 µM
- Ki (dopamine D2 receptor): 0.00125 µM
- Ki (adrenergic α1 receptor): 1.68 µM

Structure (SMILES): CC[C@H](F)c1cc(N2CCN(C)CC2)cc(-c2ccccc2C)c1Cl [Example 221, 1-Methyl-4-{3-(2-tolyl)-4-chloro-5-[1-(S)-fluoropropyl]}phenylpiperazine]
- Ki (serotonin S2 receptor): 0.00453 µM
- Ki (dopamine D2 receptor): 0.00345 µM
- Ki (adrenergic α1 receptor): 0.486 µM

Structure (SMILES): CC[C@H](F)c1cc(N2CCN(CCO)CC2)cc(-c2ccc(F)cc2C)c1Cl [Example 222]
- Ki (serotonin S2 receptor): 0.012 µM
- Ki (dopamine D2 receptor): 0.0065 µM
- Ki (adrenergic α1 receptor): 1.04 µM

Structure (SMILES): CC[C@@H](F)c1cc(N2CCN(CCO)CC2)cc(-c2ccc(F)cc2C)c1Cl [Example 223, 1-(2-Hydroxyethyl)-4-{3-[2-(4-fluorotolyl)]-4-chloro-5-[1-(R)-fluoropropyl]}phenylpiperazine]
- Ki (serotonin S2 receptor): 1.86 µM
- Ki (dopamine D2 receptor): 0.00661 µM
- Ki (adrenergic α1 receptor): 1.51 µM

Structure (SMILES): Cc1nc2n(c(=O)c1CCN1CCC(c3noc4cc(F)ccc34)CC1)CCCC2 [Risperidone, risperidone]
- blood-pressure drop as adverse reaction ([1]; owing to high α1 blocking activity): blood-pressure drop occurs as an adverse reaction
- QTC interval in electrocardiogram [1]: lengthened to induce arrhythmia

Structure (SMILES): CCN(CC)CCNC(=O)c1cc(S(C)(=O)=O)ccc1OC [Tiapride]
- extrapyramidal syndrome as adverse reaction [1]: causing extrapyramidal syndrome

Structure (SMILES): O=C(CCCN1CCC(O)(c2ccc(Cl)cc2)CC1)c1ccc(F)cc1 [haloperidol]
- extrapyramidal syndrome as adverse reaction [1]: causing extrapyramidal syndrome
